Assays:
Format in all cases: biochemical
KDR = target: T1, KDR (Homo sapiens, UniProt P35968); assay: Inhibitory activity against KDR (VEGF-R2), in vitro data of Examples 170 and 207; details: 10 μM; Examples 171 to 206; read-out: KDR inhibition at 10 μM
T1 construct: expressed in transfected cells; host or cells: CHO cells
Summary of the method: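 KDR tyrosine phosphorylation detected by luminescence after overnight 4° C capture of 20 μg lysate protein with PY20:AP antibody. Lysates came from cells given compound for 2 h at 37° C, then final 20 ng/ml VEGF for 5 min; compound-free medium as control.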

c-Abl = c-Abl (Homo sapiens, UniProt P00519); assay: Inhibitory activity against c-Abl (Example 207); details: Examples 171 to 206
FGFR3 (K650E) = target: T2, FGFR3 (K650E) (Homo sapiens, UniProt P22607, K650E); assay: Recombinant GST-FGFR-3-K650E tyrosine kinase assay (33P into poly(Glu,Tyr)); details: 10 μM; Examples 171 to 206; read-out: FGFR3 inhibition at 10 μM
T2 construct: amino acids 411-806 of the cytoplasmic domain of human FGFR-3, N-terminally fused to GST; made in house; host or cells: Sf9 insect cells (baculovirus)
T2 sequence (P22607 411-806 K650E): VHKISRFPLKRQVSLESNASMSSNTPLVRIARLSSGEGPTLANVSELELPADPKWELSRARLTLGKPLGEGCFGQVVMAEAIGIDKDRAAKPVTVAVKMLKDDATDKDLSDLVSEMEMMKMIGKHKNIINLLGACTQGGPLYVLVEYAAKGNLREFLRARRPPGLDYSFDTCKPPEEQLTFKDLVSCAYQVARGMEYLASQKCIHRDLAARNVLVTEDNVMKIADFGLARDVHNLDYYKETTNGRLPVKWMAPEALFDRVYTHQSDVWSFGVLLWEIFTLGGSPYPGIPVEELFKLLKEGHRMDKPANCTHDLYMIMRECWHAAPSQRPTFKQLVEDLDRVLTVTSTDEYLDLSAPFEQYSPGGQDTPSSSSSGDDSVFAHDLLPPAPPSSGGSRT

T1 sequence (P35968 20-1356): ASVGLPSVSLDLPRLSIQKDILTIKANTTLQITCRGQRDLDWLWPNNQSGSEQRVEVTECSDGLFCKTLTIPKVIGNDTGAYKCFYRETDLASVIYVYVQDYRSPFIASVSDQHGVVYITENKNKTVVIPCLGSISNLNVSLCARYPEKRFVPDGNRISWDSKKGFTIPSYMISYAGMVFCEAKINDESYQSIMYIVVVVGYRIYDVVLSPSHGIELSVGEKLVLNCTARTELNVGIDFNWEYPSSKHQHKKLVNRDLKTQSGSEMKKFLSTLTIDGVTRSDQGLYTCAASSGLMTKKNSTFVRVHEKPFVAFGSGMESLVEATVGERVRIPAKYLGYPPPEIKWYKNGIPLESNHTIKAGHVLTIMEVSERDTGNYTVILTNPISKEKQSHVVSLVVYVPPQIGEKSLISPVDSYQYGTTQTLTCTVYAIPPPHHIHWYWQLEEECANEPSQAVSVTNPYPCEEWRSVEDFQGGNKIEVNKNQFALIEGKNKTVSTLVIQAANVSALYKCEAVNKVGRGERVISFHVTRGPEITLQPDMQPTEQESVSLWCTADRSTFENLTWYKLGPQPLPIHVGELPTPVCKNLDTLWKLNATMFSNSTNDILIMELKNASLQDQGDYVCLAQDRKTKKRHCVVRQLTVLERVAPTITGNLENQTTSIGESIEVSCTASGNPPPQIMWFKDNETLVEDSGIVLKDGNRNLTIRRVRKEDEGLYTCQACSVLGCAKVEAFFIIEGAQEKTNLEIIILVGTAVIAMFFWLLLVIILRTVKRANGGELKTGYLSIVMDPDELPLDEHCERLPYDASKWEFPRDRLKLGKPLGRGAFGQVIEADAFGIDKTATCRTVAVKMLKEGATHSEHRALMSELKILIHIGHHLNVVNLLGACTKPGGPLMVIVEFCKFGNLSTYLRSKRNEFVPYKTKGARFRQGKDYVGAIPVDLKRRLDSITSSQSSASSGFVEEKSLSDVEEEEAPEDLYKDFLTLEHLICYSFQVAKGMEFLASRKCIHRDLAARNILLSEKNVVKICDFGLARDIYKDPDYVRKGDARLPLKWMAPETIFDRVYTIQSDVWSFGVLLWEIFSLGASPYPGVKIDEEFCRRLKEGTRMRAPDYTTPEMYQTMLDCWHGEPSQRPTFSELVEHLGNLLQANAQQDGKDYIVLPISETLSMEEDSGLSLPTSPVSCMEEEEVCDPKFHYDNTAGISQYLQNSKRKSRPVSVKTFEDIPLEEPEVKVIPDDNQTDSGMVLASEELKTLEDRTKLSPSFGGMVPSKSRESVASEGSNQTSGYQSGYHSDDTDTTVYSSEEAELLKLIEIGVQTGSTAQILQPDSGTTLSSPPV
Sequence of c-Abl (P00519 whole entry): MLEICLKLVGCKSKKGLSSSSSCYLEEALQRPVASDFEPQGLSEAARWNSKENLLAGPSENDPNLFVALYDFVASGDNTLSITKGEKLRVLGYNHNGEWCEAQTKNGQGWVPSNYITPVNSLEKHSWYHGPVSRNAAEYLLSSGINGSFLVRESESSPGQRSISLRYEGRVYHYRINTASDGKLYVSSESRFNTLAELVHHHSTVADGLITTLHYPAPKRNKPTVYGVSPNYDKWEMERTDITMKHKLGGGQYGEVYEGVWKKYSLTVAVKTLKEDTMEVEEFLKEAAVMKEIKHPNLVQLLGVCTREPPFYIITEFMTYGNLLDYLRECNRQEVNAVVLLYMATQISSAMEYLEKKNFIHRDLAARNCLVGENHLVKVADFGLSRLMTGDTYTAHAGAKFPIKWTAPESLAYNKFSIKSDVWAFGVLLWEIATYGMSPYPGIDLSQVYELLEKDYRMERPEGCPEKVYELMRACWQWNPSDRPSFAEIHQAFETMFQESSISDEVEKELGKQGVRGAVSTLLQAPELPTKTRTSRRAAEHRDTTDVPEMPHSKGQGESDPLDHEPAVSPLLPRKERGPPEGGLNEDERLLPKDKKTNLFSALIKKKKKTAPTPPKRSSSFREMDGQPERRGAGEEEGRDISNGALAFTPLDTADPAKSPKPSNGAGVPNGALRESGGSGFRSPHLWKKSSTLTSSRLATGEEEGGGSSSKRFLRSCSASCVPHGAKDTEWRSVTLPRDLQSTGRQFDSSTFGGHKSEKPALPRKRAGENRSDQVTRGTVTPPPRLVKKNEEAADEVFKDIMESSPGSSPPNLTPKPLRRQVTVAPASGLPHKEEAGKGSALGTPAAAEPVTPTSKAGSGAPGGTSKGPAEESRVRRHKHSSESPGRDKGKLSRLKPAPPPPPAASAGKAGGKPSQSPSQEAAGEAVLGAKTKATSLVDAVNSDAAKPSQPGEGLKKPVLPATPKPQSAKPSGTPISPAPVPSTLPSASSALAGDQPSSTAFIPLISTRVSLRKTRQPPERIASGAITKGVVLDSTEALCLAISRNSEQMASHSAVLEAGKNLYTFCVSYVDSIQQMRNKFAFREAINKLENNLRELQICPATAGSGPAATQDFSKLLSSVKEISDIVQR

Structure (SMILES)	inhibition at 10 µM (KDR)	inhibition at 10 µM (c-Abl)	inhibition at 10 µM (FGFR3 (K650E))
Cc1ccc(NC(=O)c2cccc(C(F)(F)F)c2)cc1NC(=O)Nc1cc(Nc2ccc(N3CCN(C)CC3)cc2)ncn1 [Example 174, N-[4-Methyl-3-(3-{6-[4-(4-methyl-piperazin-1-yl)-phenylamino]-pyrimidin-4-yl}-ureido)-phenyl]-3-trifluoromethyl-benzamide]	87 to 100%	79 to 100%	56 to 98%
Cc1ccc(NC(=O)c2cccc(C(F)(F)F)c2)cc1NC(=O)N(C)c1cc(Nc2ccc(C(=O)N3CCN(C)CC3)cc2)ncn1 [Example 187, N-[4-Methyl-3-(3-methyl-3-{6-[4-(4-methyl-piperazine-1-carbonyl)-phenylamino]-pyrimidin-4-yl}-ureido)-phenyl]-3-trifluoromethyl-benzamide]	87 to 100%	79 to 100%	56 to 98%
CCN(CC)CCOc1ccc(Nc2cc(NC(=O)Nc3cc(NC(=O)c4cccc(C(F)(F)F)c4)ccc3C)ncn2)cc1 [Example 176, N-[3-(3-{6-[4-(2-Diethylamino-ethoxy)-phenylamino]-pyrimidin-4-yl}-ureido)-4-methyl-phenyl]-3-trifluoromethyl-benzamide]	87 to 100%	79 to 100%	56 to 98%
CCN(C(=O)Nc1cc(NC(=O)c2cccc(C(F)(F)F)c2)ccc1C)c1cc(Nc2ccc(N3CCN(C)CC3)cc2)ncn1 [Example 192, N-[3-(3-Ethyl-3-{6-[4-(4-methyl-piperazin-1-yl)-phenylamino]-pyrimidin-4-yl}-ureido)-4-methyl-Phenyl]-3-trifluoromethyl-benzamide]	87 to 100%	79 to 100%	56 to 98%
Cc1ccc(NC(=O)c2ccc(CN3CCN(C)CC3)c(C(F)(F)F)c2)cc1NC(=O)N(C)c1cc(Nc2ccccc2)ncn1 [Example 195, N-{4-Methyl-3-[3-methyl-3-(6-phenylamino-pyrimidin-4-yl)-ureido]-phenyl}-4-(4-methyl-piperazin-1-ylmethyl)-3-trifluoromethyl-benzamide]	87 to 100%	79 to 100%	56 to 98%
Cc1ccc(NC(=O)c2cccc(C(F)(F)F)c2)cc1NC(=O)Nc1cc(Nc2ccc(OCCCN(C)C)cc2)ncn1 [Example 177, N-[3-(3-{6-[4-(3-Dimethylamino-propoxy)-phenylamino]-pyrimidin-4-yl}-ureido)-4-methyl-phenyl]-3-trifluoromethyl-benzamide]	87 to 100%	79 to 100%	56 to 98%

The next lines start with the values.

inhibition at 10 µM (KDR)	inhibition at 10 µM (c-Abl)	inhibition at 10 µM (FGFR3 (K650E))	Structure (SMILES)
87 to 100%	79 to 100%	56 to 98%	COc1ccc(NC(=O)c2ccc(CN3CCN(C)CC3)c(C(F)(F)F)c2)cc1NC(=O)N(C)c1cc(Nc2ccc(N3CCN(C)CC3)cc2)ncn1 [Example 198, N-[4-Methoxy-3-(3-methyl-3-{6-[4-(4-methyl-piperazin-1-yl)-phenyl-amino]-pyrimidin-4-yl}-ureido)-phenyl]-4-(4-methyl-piperazin-1-ylmethyl)-3-trifluoro-methyl-benzamide]
87 to 100%	79 to 100%	56 to 98%	COC(=O)Nc1cc(N(C)C(=O)Nc2cc(NC(=O)c3ccc(CN4CCN(C)CC4)c(C(F)(F)F)c3)ccc2C)ncn1 [Example 203, [6-(1-Methyl-3-{2-methyl-5-[4-(4-methyl-piperazin-1-ylmethyl)-3-trifluoromethyl-benzoylamino]-phenyl}-ureido)-pyrimidin-4-yl]-carbamic acid methyl ester]
87 to 100%	79 to 100%	56 to 98%	COc1ccc(NC(=O)c2cccc(C(F)(F)F)c2)cc1NC(=O)N(C)c1cc(Nc2ccc(N3CCN(C)CC3)cc2)ncn1 [Example 197, N-[4-Methoxy-3-(3-methyl-3-{6-[4-(4-methyl-Piperazin-1-yl)-phenylamino]-pyrimidin-4-yl}-ureido)-phenyl]-3-trifluoromethyl-benzamide]
